In general, inhibition refers to how much of the control response was suppressed.

Test [1] concerns the target T1, baculovirus-expressed human trkA cytoplasmic domain (Homo sapiens, UniProt P04629).
T1 construct: baculovirus-expressed human trkA cytoplasmic domain; made in house; host or cells: baculovirus expression system (insect cells)
Kind of test: Inhibition of trkA kinase activity (ELISA-based assay). The format is biochemical. The settings on record: 40 μM ATP, read-out: trk IC50. How it is done: An antibody to phosphotyrosine (UBI) was then added, followed by a secondary enzyme-conjugated antibody, alkaline phosphatase-labelled goat anti-mouse IgG (Bio-Rad). The activity of the bound enzyme was measured using an amplified detection system (Gibco-BRL). Inhibition data were analyzed using the sigmoidal dose-response (variable slope) equation in GraphPad Prism.
For orientation: An ELISA detects its analyte on a solid surface through an enzyme-linked reagent.

Test [2] concerns the target T2, protein kinase C (UBI; mixed isozymes of a, b, g).
T2 construct: 1.5 ng protein kinase C (UBI)
The test can be described thus: Inhibition of protein kinase C activity (Multiscreen TCA in-plate assay). The format is biochemical. The settings on record: read-out: PKC IC50. How it is done:
Assays were performed in 96-well Multiscreen-DP plates (Millipore). […] The reaction was allowed to proceed for 10 min at 37° C. […] The IC50 values were calculated by fitting the data to the sigmoidal dose-response (variable slope) equation in GraphPad Prism.

In test [3] the test system is dissociated rat embryonic spinal cord culture (ChAT activity). Kind of test: Enhancement of spinal cord ChAT activity in dissociated rat embryonic spinal cord culture. To be noted: ChAT measured after 2 days in vitro. The format is cell-based. From the text:
ChAT was employed a biochemical marker for functional cholinergic neurons. CHAT activity has been used to study the effects of neurotrophins (e.g., NGF or NT-3) on the survival and/or function of cholinergic neurons. The ChAT assay also has been used as an indication of the regulation of ChAT levels within cholinergic neurons. […] In these assays, a compound was directly added to a dissociated spinal cord culture. […] Neurochem.

The target in test [4] is T3, trkA (Homo sapiens, UniProt P04629).
T3 construct: expressed in transfected cells; host or cells: NIH3T3 cells
T3 sequence (P04629 33-796, species assumed): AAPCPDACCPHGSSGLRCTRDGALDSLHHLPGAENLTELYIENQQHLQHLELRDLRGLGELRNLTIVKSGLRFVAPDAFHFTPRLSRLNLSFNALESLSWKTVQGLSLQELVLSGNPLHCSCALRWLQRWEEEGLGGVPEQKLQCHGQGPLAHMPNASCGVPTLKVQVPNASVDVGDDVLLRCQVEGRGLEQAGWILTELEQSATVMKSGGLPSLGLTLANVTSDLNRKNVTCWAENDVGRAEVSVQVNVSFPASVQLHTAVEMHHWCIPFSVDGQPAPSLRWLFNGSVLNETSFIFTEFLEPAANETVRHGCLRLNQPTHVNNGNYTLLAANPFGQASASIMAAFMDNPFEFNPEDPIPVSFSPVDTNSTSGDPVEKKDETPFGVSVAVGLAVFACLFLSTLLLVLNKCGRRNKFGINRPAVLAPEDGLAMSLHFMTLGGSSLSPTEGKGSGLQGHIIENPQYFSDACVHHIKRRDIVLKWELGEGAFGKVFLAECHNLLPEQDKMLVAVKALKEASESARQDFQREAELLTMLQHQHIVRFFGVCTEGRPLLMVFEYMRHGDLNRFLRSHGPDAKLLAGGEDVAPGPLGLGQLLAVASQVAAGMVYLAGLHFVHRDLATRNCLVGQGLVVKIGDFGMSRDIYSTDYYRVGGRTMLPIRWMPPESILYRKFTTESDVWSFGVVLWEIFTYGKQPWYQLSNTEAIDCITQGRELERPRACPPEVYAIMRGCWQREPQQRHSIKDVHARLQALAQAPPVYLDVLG
It is filed as cell-based. To be noted: NIH3T3 cells; for inhibition at 0.001 µM: 1 nM compound, read-out: Inhibition Score 1 nM; for inhibition at 0.001 µM / inhibition at 0.01 µM / inhibition at 0.05 µM / inhibition at 0.1 µM: NGF 10 ng/ml, percent decrease in trk protein band; for inhibition at 0.01 µM: 10 nM compound, read-out: Inhibition Score 10 nM; for inhibition at 0.05 µM: 50 nM compound, read-out: Inhibition Score 50 nM; for inhibition at 0.1 µM: 100 nM compound, read-out: Inhibition Score 100 nM.
Procedure: NIH3T3 cells transfected with trkA were grown in 100 mm dishes. […] NGF (Harlan/Bioproducts for Science) was then added to the cells at a concentration of 10 ng/ml for 5 minutes. Cells were lysed in buffer containing detergent and protease inhibitors. Clarified cell lysates were normalized to protein using BCA method and immunoprecipitated with anti-trk antibody.
The immune complexes were collected on Protein A Sepharose beads (Sigma), separated by SDS polyacrylamide gel electrophoresis (SDS-PAGE), and transferred to a polyvinylidene difluoride (PVDF) membrane. The membrane was immunoblotted with anti-phosphotyrosine antibody (UBI), followed by incubation with horseradish peroxidase coupled goat anti-mouse IgG (Bio-Rad).. Phosphorylated proteins were visualized using ECL (Amersham).
The area of the trk protein band was measured and compared to NGF-stimulated control.

Test [5] deals with rat spinal cord motoneurons. Kind of test: Survival assay using rat spinal cord motoneurons (calcein AM viability). It is filed as cell-based. The settings on record: cultures enriched for motoneurons, survival assessed after 4 days (FIG. 8). Here is the method: Spinal cords were dissected from Sprague-Dawley rat fetuses (Charles River Laboratories, Wilmington, Mass.) of embryonic age (E) 14.5-15. Cells from only the ventral portion of the spinal cord were dissociated, and further enriched for motoneurons by centrifugation on a 6.5% step metrizamide gradient, and were analyzed for purity by staining with low affinity neurotrophin receptor antibody (IgG-192, Boehringer-Mannheim). Cells were seeded onto 96-well plates previously coated with poly-1-ornithine and laminin (5 ug/ml each) at a density of 6×10^4 cells/cm^2 in chemically defined serum-free N2 medium (Bottenstein and Sato, 1979). To distinguish attachment from survival effects, 3,9-bis[(ethylthio)methyl]-K-252a (Kaneko et. al., J. Med. Chem 40:1863-1869, 1997) was added to cultures after an initial attachment period of 1-3 hours.
Neuronal survival was assessed after 4 days by calcein AM (Molecular Probes, Eugene, Oreg.) in a fluorimetric viability assay (Bozyczko-Coyne et. al., J. Neurosci. Meth. 50:205-216, 1993). […] The fluorescent signal was read using a plate-reading fluorimeter (Cytofluor 2350) (excitation=485 nm; emission=538 nm). […] Linearity of the fluorescence signal was verified for the concentration and incubation time for the range of cell densities. Microscopic counts of neurons correlated directly with relative fluorescence values.

T1 sequence (P04629 440-796 limits assumed): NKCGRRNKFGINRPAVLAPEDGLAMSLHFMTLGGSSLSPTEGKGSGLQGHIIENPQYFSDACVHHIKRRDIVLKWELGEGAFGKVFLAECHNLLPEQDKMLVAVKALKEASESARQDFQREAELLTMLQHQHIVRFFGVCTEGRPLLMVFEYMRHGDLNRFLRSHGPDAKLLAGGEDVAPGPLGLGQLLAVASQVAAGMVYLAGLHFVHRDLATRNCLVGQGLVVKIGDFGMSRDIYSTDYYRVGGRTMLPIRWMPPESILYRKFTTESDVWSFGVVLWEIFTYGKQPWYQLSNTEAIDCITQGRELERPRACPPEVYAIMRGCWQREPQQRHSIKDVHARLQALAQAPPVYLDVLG

`C[C@@]12C=C[C@@H](O1)n1c3ccccc3c3c4c(c5c6ccccc6n2c5c31)CNC4=O` [Compound XXIII]: the IC50 in test [1] was 4 nM; in test [2], above 1000 nM.

Turning to `C[C@@]1(O)C[C@H]2O[C@]1(C)n1c3ccccc3c3c4c(c5c6ccccc6n2c5c31)C(=O)NC4` [Compound XXIX, reference compound], the IC50 in test [1] is 7 nM.

Take `COC(=O)[C@]1(O)CC2O[C@]1(C)n1c3ccccc3c3c4c(c5c6ccccc6n2c5c31)C(=O)NC4` [Compound XIV, 3′-(R)-K-252a]: in test [3], the “Spinal Cord ChAT % control, Activity at 50 nM” value was found to be 147 % control and the “Spinal Cord ChAT % control, Maximal Activity” value turned out to be 195 % control.

Turning to `C[C@]12OC(C[C@@]1(O)C(N)=O)n1c3ccccc3c3c4c(c5c6ccccc6n2c5c31)CNC4=O` [Compound XV], the IC50 in test [1] was 21 nM. Moreover, the “Spinal Cord ChAT % control, Maximal Activity” value in test [3] was 129 % control.

With `C[C@@]1(O)CC2O[C@]1(C)n1c3ccccc3c3c4c(c5c6ccccc6n2c5c31)C(=O)NC4` [Compound XXIX, reference compound], in test [4], the inhibition at 0.001 µM lay within 26 to 49%, the inhibition at 0.01 µM was in the range of 50 to 75%, the inhibition at 0.05 µM lay within 50 to 75% and the inhibition at 0.1 µM lay in the range of 50 to 75%. Besides, the “complete inhibition of trkA at 100 nM” value in test [4] (100 nM) is given as “did not show complete inhibition”. Besides, in test [2], the IC50 amounted to 310 nM.

`C[C@]12OC(C[C@@]1(O)C(=O)O)n1c3ccccc3c3c4c(c5c6ccccc6n2c5c31)CNC4=O` [Compound XVI]: in test [5], the “survival of spinal cord motoneurons” value is “significantly enhanced survival”.

For `C[C@]1(O)CC2O[C@]1(C)n1c3ccccc3c3c4c(c5c6ccccc6n2c5c31)C(=O)NC4` [Compound X], in test [1], the IC50 was determined as 2 nM. Further, in test [4], the inhibition at 0.001 µM is 26 to 49%, the inhibition at 0.01 µM lay within 50 to 75%, the inhibition at 0.05 µM lay in the range of 76 to 100% and the inhibition at 0.1 µM lay in the range of 76 to 100%. For the same molecule, the “concentration giving complete inhibition of trkA” value in test [4] is given as below 50 nM. Moreover, in test [4] (NGF-stimulated, read-out: IC50 for inhibiting trk in a whole cell preparation), the IC50 is below 10 nM. Besides, the IC50 in test [2] was above 1000 nM. In test [3], the “Spinal Cord ChAT % control, Activity at 50 nM” value is recorded as below 120 % control and the “Spinal Cord ChAT % control, Maximal Activity” value turned out to be 127 % control.

In the case of `C[C@]12OC(C[C@@]1(O)CO)n1c3ccccc3c3c4c(c5c6ccccc6n2c5c31)CNC4=O` [Compound VII], in test [4], the inhibition at 0.001 µM is 1 to 25%, the inhibition at 0.01 µM fell in the range of 26 to 49%, the inhibition at 0.05 µM was in the range of 76 to 100% and the inhibition at 0.1 µM lay within 76 to 100%. Moreover, the IC50 in test [2] was 79 nM. For the same molecule, in test [3], the “Spinal Cord ChAT % control, Activity at 50 nM” value was below 120 % control.

As to `C[C@]12OC(C[C@H]1CO)n1c3ccccc3c3c4c(c5c6ccccc6n2c5c31)CNC4=O` [Compound VI], the IC50 in test [1] came to 2 nM. Further, the IC50 in test [2] turned out to be 95 nM. In addition, in test [3], the “Spinal Cord ChAT % control, Activity at 50 nM” value is below 120 % control and the “Spinal Cord ChAT % control, Maximal Activity” value is 125 % control.

These data come from patent publication US6451786B1 (Cephalon, Inc., priority 1997, dated 2002).
